Measured values published in patent US6011010A, “Cytotoxic and antiviral compound” (Pharma Mar, s.a., priority 1997, dated 2000).
Converted amounts (≈) assume the structure as drawn.

How the values were obtained:
[1] = test system: HSV II; details: Mv 1 Lu cells
[2] = In vitro cytotoxicity, human colon carcinoma HT-29 cell culture; assay type: cell-based; details: read-out: Cytotoxicity μg/mL (IC50)
Procedure: (§1) The antitumor activities of this compound have been determinated "in vitro" in cell cultures of human lung carcinoma A-549 and human colon carcinoma HT-29. The procedure was carried out using the methodology described by Raymond J. Bergeron et al., Biochem. Biophys. Res. Comm. 1984, 121 (3), 848-854 and by Alan C. Schroeder et al., J. Med. Chem. 1981, […] 1078-1083.

[3] = test system: Saccharomyces cerevisiae; details: 50 μg/disk
[4] = test system: VSV
[5] = test system: HSV-1; details: CV-1 cells
[6] = In vitro cytotoxicity, human lung carcinoma A-549 cell culture; assay type: cell-based; details: read-out: Cytotoxicity μg/mL (IC50)
Procedure: as §1

## C/C=C1\NC(=O)[C@H](Cc2ccccc2)NC(=O)[C@@H](C(C)C)NC(=O)[C@@H]([C@@H](C)CC)NC(=O)[C@H](NC(=O)[C@H](NC(=O)[C@H](CCCN)NC(=O)[C@H]2CCCN2C(=O)[C@H](NC(=O)[C@@H](NC(=O)[C@@H](NC(=O)[C@H](NC(=O)CCCC(C)C)C(C)C)[C@@H](C)O)C(C)C)C(C)C)[C@@H](C)CC)[C@@H](C)OC(=O)[C@H](C(C)C)NC1=O [Kahalalide F]
[1]; at 0.5 μg/mL
  Antiviral % reduction: 95%
[1]; concentration giving the printed % reduction
  Antiviral μg/mL (M.I.C.): 0.5 µg/mL
[2]
  IC50: 0.25 to 0.5 µg/mL (≈ 0.169 to 0.338 µM)
[3]
  Antifungal 6 mm disk (zone): neg
[4]
  Antiviral μg/mL (M.I.C.): > 8
[5]
  Antiviral μg/mL (M.I.C.): > 8 µg/mL
[6]
  IC50: 2.5 µg/mL (≈ 1.69 µM)
